The structures appear in SMILES notation. “Also recorded” adds a separate entry of the source.

Assay [1] has as its target T1, Sf9/huANT3 mitochondria (Homo sapiens, UniProt P12236).
T1 construct: expressed in transfected cells; host or cells: Spodoptera frugiperda Sf9 cells infected with recombinant baculovirus; isolated mitochondria
T1 sequence (P12236 1-298): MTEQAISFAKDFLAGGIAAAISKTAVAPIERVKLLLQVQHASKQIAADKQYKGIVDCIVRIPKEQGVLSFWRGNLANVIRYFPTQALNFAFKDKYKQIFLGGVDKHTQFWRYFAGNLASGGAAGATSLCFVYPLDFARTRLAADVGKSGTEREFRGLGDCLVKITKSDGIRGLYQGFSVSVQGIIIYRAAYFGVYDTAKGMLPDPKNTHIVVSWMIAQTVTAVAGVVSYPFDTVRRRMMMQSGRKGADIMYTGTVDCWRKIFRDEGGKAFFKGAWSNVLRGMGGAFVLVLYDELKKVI
In words: [125I]atractyloside competition binding to Sf9/huANT3 mitochondria. Conditions: 0.5 nM [125I]atractyloside. The method, then: (§1) Sf9 cells expressing huANT3 were grown in spinner flasks. The cells were harvested by centrifugation at 2,000 g for 5 min. The cell pellet was resuspended in MSB and subjected to 3 freeze-thaw cycles. Cell membranes and debris were removed by centrifugation at 600 g for 5 min; mitochondria were collected by centrifuging the supernatant at 20,000 g for 15 min. The mitochondrial pellets were suspended in MSB, and used for binding assays as described above. Homologous competition of [^32P]ATP binding was performed using 25 μg mitochondrial protein per assay.
These findings are consistent with the presence of functional huANT3 in the mitochondrial preparations.
Atractyloside analogs (Example 6; Table 1; see also Examples 7-9) were used in pseudo-homologous competition binding assays using Sf9/huANT3 mitochondria. Mitochondria (see Example 12, 25 μg/tube) were incubated with 0.5 nM [^125I]atractyloside and varying concentrations of non-radiolabeled atractyloside or fluorescent atractyloside derivatives as described above (FIGS. 7-9).

Assay [2] concerns the target T1, Sf9/huANT3 mitochondria. Description: Homologous competition of [32P]ATP binding to Sf9/huANT3 mitochondria. The conditions noted are these: FIG. 8. The method, then: To estimate maximal binding and the extent of overexpression of the huANT3, 25 μg of membrane protein was incubated with varying amounts of [^32P]ATP (1-500 μM) in binding buffer (120 mM KCl, 10 mM Tris, 1 mM EDTA, pH 7.4) for 2 hr at room temperature. The membranes with bound ATP were sedimented by centrifugation at 5000 g for 5 min, and washed once with binding buffer. Membrane pellets were then mixed with 5 ml scintillation cocktail and counted.
as §1

Assay [3] addresses T2, T. ni/huANT3 mitochondria (Homo sapiens, UniProt P12236).
T2 construct: expressed in transfected cells; host or cells: Trichoplusia ni cells infected with recombinant baculovirus (cells prepared by PharMingen); isolated mitochondria
T2 sequence (P12236 1-298): T1 sequence (P12236 1-298)
Description: 125I-compound 24 competition binding (Tube Assay), mitochondria from T. ni cells expressing huANT3. As to the method:
Atractyloside analogs (Example 6; Table 1; see also Examples 7-9) were also used in pseudo-homologous competition binding assays using T. ni/huANT3 mitochondria or bovine mitochondria. Mitochondria from noninfected T. ni cells, or T. ni cells infected with a baculovirus expressing huANT3 (see Example 3) were prepared as follows: […] cells were prepared by a subcontractor (PharMingen, San Diego, Calif.) as portions of about 250 mg of cells per tube. Each portion was suspended in 1 ml of MSB with protease inhibitors (leupeptin, final concentration 10 ug/ml; pepstatin, final concentration 10 ug/ml; aprotinin, final concentration, 2 ug/ml; phenylmethylsulfonyl fluoride, [PMSF], final concentration, 100 μM; all from Sigma Chemical Co., St. Louis, Mo.). The resuspended cell suspensions were frozen and thawed twice, then homogenized using a rotating teflon-coated probe and a close-fitting glass container (10 passes). The cellular homogenate was centrifuged (3,700 rpm, approximately 1,500×g) at 4° C. for 5 minutes; this supernatant from the first spin was saved. The pellet was washed with about 500 μl of MSB with protease inhibitors, centrifuged (3,800 rpm, approximately 1,600×g) at 4° C. for 5 minutes, and supernatant from this spin was combined with the supernatant from the first spin. […]
(§2) The mitochondrial preparations were divided into aliquots (typically, 50μl for T. ni mitochondria or 20 μl for bovine mitochondria) and then either used directly in assays or flash frozen and stored at −80° C. The total protein content in the mitochondrial preparations was determined using the enhanced protocol (30 minutes at 60° C.; see http://www.ruf.rice.edu/˜bioslabs/methods/protein/BCA.html) of the bicinchoninic acid (BCA) assay (available in kit form from Pierce, Rockford, Ill.). […]
(§3) Unbound ^125I-compound 24 was removed by aspiration. […] The resultant pellets were aspirated and the radioactivity (dpm) in each was determined by gamma counting.

The nature of assay [4]: 125I-compound 24 competition binding (Tube Assay), mitochondria from control non-infected T. ni cells. The conditions noted are these: control (nontransformed) T. ni mitochondria, 1 μg protein/tube; FIG. 15. The method, then:
Atractyloside analogs (Example 6; Table 1; see also Examples 7-9) were also used in pseudo-homologous competition binding assays using T. ni/huANT3 mitochondria or bovine mitochondria. Mitochondria from noninfected T. ni cells, or T. ni cells infected with a baculovirus expressing huANT3 (see Example 3) were prepared as follows: […] cells were prepared by a subcontractor (PharMingen, San Diego, Calif.) as portions of about 250 mg of cells per tube. […]
as §2, §3

In the case of `C=C1[C@@H]2CCC3[C@@](CC[C@@H]4[C@H](C(=O)O)C[C@@H](O[C@@H]5O[C@H](CO)[C@@H](OS(=O)(=O)[O-])[C@H](OS(=O)(=O)[O-])[C@H]5OC(=O)CC(C)C)C[C@@]34C)(C2)[C@@H]1O.[K+].[K+]` (some centres unmarked) [ATR, atractyloside], the “cpm [125I]Atractyloside bound in the presence of ATR derivative” value on Sf9/huANT3 mitochondria [1] ([ATR Derivative] 1.0 nM) worked out at 224 cpm; on Sf9/huANT3 mitochondria [1] ([ATR Derivative] 5.0 nM), 146 cpm; at Sf9/huANT3 mitochondria [1] ([ATR Derivative] 10 nM), 42 cpm; on Sf9/huANT3 mitochondria [1] ([ATR Derivative] 50 nM), 26 cpm; on Sf9/huANT3 mitochondria [1] ([ATR Derivative] 1,000 nM), 36 cpm; at Sf9/huANT3 mitochondria [1] ([ATR Derivative] 5,000 nM) it was 45 cpm. For the same molecule, the “cpm [125I]Atractyloside bound in the presence of ATR derivative” value on Sf9/huANT3 mitochondria [1] ([ATR Derivative] 10,000 nM) was found to be 0 cpm. The “displacement of ATP binding” value on Sf9/huANT3 mitochondria [2] is recorded as “displaced by low concentrations of atractyloside”. Moreover, in assay [3] (mitochondria from T. ni cells expressing huANT3, 1 μg protein/tube, FIG. 14), the “affinity relative to the low affinity ANT ligand ADP” value is given as “about 1,000 fold”. In addition, the “competitive inhibition of 125I-compound 24 binding (in words)” value in assay [3] (mitochondria from T. ni cells expressing huANT3, FIGS. 12, 14, 15) is “slightly higher affinity than compound 24; also recorded: increasingly inhibited by higher concentrations of ATR”; in assay [4] it was “only slight inhibition”.
